Results taken from ChEMBL document CHEMBL1201862, “PubChem BioAssay data set” (2004).
Active and inactive are the calls of the source.

What was measured:
[1] = target: T1, Dual specificity protein phosphatase 6 (Rattus norvegicus, UniProt Q64346); assay: inhibition of rat DUSP6 enzyme activity – biochemical, in vitro, primary screen (AID 425)
T1 sequence (Q64346 whole entry): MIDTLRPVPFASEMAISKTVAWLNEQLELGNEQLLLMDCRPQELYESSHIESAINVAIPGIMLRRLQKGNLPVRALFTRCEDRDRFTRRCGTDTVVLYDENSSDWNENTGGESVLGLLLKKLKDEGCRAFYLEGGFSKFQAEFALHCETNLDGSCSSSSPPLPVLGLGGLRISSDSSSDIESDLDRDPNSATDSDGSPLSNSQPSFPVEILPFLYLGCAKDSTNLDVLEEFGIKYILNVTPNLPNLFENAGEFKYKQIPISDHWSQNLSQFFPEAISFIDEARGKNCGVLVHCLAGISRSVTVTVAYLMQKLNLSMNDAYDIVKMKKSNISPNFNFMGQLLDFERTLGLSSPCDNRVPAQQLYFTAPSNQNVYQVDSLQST

[2] = target: Induced myeloid leukemia cell differentiation protein Mcl-1 (Homo sapiens, UniProt Q07820); type: functional
[3] = target: T2, DNA dC->dU-editing enzyme APOBEC-3G (Homo sapiens, UniProt Q9HC16); assay: inhibition of APOBEC3G ssDNA deamination – biochemical, fluorescence, single-stranded DNA substrate, SAR follow-up (AID 602136); type: functional; conditions: read-out: IC50_Mean
[4] = target: T3, DNA dC->dU-editing enzyme APOBEC-3A (Homo sapiens, UniProt P31941); assay: SAR analysis of small molecule inhibitors of APOBEC3A DNA Deaminase via a fluorescence-based single-stranded DNA deaminase assay - Set 2.; type: functional; conditions: read-out: IC50_Mean
Large T antigen = Large T antigen (Simian virus 40, UniProt P03070); type: functional, Betapolyomavirus macacae;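 also: Confirmatory-stage PubChem screen for compounds that inhibit SV40 T antigen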
Bcl-2-like protein 10 = target: T4, Bcl-2-like protein 10 (Homo sapiens, UniProt Q9HD36); assay: Bcl-B/TR3 peptide binding disruption – biochemical, fluorescence polarization, FITC-TR3 peptide, selectivity assay for Bfl-1 inhibitor project, primary screen (AID 748);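 also: fluorescence polarization from a fluorescein-labelled TR3 peptide binding purified Bcl-B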
T4 sequence (Q9HD36 whole entry): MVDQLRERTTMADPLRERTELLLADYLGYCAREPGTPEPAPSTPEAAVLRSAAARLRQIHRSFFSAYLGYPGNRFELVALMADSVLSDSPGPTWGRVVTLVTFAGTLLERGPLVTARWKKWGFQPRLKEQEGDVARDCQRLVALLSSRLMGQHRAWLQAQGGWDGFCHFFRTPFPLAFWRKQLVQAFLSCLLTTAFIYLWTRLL

[5] = target: Heat shock 70 kDa protein 1A (Homo sapiens, UniProt P0DMV8); assay: inhibition of Hsp70 binding activity – biochemical, fluorescence polarization, SAR follow-up (AID 1072)
[6] = target: T5, Tyrosine-protein phosphatase non-receptor type 7 (Homo sapiens, UniProt P35236); type: functional
T5 sequence (P35236 whole entry): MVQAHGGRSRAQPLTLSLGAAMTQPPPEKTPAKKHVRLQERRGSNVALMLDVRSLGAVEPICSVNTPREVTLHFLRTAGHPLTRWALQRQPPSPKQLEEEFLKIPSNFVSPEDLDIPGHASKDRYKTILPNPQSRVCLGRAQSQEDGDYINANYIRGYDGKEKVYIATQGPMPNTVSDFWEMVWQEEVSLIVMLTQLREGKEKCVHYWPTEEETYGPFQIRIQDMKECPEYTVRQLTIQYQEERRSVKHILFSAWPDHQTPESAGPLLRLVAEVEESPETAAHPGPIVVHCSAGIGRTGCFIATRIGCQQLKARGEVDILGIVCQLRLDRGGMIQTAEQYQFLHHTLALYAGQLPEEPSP

[7] = target: T2, DNA dC->dU-editing enzyme APOBEC-3G; assay: SAR analysis of small molecule inhibitors of APOBEC3G DNA Deaminase via a fluorescence-based single-stranded DNA deaminase assay - Set 2.; type: functional; conditions: read-out: IC50_Mean
[8] = target: T6, Zinc finger protein mex-5 (Caenorhabditis elegans, UniProt Q9XUB2); assay: potency of MEX-5 RNA-binding blockers – biochemical, C. elegans, fluorescence polarization, dose response (AID 1960)
T6 sequence (Q9XUB2 whole entry): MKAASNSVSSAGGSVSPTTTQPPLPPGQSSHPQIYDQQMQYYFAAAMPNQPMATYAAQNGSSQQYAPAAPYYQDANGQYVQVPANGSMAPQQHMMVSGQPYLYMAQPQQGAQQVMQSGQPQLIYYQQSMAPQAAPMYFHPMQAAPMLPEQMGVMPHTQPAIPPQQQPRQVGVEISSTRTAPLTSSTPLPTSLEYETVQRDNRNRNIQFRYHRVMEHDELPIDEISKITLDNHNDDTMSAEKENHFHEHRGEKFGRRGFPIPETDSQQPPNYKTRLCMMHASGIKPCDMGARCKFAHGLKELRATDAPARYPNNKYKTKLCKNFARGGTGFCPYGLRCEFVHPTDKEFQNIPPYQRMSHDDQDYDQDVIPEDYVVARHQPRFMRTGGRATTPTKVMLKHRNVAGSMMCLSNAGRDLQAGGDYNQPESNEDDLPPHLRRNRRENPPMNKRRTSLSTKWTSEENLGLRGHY

[9] = target: Glyceraldehyde-3-phosphate dehydrogenase (Homo sapiens, UniProt P04406)
[10] = target: T1, Dual specificity protein phosphatase 6
[11] = target: Eukaryotic translation initiation factor 4E (Mus musculus, UniProt P63073); assay: blockers of eIF4G binding by eIF4E – biochemical, TR-FRET, dose response (AID 855); type: functional;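 also: potency for disrupting eIF4E binding to eIF4GI seen as loss of FRET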
[12] = target: T7, RNA-binding protein pos-1 (Caenorhabditis elegans, UniProt G5EF15); assay: disruptors of C. elegans POS-1 RNA interaction – biochemical, fluorescence polarization, dose response (AID 1964);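 also: purified POS-1 fused to maltose binding protein made in E. coli; potency of compounds blocking POS-1 binding to fluorescent RNA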
T7 sequence (G5EF15 whole entry): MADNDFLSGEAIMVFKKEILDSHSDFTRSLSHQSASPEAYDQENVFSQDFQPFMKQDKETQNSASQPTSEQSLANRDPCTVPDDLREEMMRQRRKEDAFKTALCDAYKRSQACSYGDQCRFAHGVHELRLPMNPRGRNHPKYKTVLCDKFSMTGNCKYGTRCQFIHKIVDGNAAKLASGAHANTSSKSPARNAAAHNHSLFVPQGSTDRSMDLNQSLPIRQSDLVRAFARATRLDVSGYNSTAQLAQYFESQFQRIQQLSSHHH

[13] = target: T3, DNA dC->dU-editing enzyme APOBEC-3A; assay: SAR analysis of small molecule inhibitors of APOBEC3A DNA Deaminase via a fluorescence-based single-stranded DNA deaminase assay.; type: functional; conditions: read-out: IC50_Mean
[14] = target: T1, Dual specificity protein phosphatase 6; type: functional
[15] = target: Heat shock cognate 71 kDa protein (Homo sapiens, UniProt P11142); assay: In Vitro Hsc70 Dose Response Fluorescence Polarization Assay. [Related pubchem assays: 1072 ]
[16] = target: T8, Apoptotic protease-activating factor 1 (Homo sapiens, UniProt O14727); assay: SAR analysis of small molecule Activators of Apaf-1 in a Fluorescent assay - set 2.; type: functional; conditions: read-out: EC50_Mean
T8 sequence (O14727 whole entry): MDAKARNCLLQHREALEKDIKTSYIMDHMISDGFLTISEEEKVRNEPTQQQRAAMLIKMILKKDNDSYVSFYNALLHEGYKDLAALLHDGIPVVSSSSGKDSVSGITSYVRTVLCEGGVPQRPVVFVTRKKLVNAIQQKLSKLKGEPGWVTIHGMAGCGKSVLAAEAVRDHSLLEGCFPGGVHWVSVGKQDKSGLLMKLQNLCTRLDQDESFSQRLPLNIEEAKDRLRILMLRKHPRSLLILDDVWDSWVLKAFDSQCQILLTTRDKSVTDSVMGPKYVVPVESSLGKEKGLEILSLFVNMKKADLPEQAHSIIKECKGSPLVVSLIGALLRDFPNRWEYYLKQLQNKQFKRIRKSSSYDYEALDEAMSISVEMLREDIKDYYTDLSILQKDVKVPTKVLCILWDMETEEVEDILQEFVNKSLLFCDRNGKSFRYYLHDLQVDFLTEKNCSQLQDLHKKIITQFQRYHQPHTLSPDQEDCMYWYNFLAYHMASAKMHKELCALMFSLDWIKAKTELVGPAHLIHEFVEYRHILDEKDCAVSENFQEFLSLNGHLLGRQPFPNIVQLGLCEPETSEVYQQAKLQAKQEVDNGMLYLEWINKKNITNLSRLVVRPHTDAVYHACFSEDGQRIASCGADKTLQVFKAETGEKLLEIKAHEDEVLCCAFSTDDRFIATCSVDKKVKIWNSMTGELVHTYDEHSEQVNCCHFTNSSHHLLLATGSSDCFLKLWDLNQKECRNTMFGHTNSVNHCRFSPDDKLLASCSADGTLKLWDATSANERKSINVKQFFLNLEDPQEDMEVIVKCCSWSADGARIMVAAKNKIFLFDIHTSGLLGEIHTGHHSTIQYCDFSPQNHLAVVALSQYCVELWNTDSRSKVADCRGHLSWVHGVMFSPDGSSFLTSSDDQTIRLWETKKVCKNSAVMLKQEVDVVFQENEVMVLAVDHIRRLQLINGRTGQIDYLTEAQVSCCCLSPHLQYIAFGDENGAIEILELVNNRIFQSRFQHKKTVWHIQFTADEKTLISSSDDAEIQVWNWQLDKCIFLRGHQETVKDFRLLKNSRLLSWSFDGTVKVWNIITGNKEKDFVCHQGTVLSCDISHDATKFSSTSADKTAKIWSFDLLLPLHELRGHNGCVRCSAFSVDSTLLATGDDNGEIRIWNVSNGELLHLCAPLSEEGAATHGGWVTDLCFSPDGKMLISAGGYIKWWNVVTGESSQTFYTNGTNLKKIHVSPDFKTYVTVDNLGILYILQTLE

[17] = SAR analysis of small molecule activators of Apaf-1 using a LZ-Caspase-9/Caspase-3 Fluorescent Selectivity assay - Set 2.; type: functional; conditions: read-out: EC50_Mean

T3 sequence (P31941 whole entry): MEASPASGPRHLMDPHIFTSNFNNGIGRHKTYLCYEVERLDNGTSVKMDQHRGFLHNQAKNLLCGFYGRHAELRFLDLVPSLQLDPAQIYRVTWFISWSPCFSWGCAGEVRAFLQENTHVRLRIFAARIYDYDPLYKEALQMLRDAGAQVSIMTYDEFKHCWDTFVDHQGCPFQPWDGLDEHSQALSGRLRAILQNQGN
T2 sequence (Q9HC16 whole entry): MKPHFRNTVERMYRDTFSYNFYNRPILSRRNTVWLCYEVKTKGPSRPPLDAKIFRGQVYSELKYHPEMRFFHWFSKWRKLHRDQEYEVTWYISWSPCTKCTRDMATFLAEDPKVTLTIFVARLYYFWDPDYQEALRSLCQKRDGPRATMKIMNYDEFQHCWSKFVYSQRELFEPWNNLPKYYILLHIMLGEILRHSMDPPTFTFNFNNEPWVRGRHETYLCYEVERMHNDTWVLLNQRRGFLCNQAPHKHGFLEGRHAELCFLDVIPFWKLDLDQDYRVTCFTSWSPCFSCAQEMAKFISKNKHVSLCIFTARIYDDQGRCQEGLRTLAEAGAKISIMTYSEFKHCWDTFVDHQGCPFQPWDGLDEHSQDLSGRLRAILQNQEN
Heat shock 70 kDa protein 1A, sequence (P0DMV8 whole entry): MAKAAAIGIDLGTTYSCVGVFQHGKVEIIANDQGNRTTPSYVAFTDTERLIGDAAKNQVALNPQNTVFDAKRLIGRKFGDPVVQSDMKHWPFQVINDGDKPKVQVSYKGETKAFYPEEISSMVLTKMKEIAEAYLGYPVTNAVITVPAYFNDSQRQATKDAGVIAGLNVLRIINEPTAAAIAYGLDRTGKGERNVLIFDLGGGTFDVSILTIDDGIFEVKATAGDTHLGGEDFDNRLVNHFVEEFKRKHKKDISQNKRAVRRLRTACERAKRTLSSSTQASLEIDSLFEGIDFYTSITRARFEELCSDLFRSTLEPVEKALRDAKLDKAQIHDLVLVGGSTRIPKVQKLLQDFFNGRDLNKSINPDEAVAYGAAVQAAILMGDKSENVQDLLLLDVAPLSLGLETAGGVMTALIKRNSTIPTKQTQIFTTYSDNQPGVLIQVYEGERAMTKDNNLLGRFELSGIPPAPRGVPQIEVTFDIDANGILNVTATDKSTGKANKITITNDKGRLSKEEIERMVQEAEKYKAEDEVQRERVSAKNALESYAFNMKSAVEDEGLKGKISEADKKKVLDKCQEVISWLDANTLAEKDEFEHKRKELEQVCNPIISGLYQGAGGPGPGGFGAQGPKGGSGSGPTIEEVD
Large T antigen, sequence (P03070 whole entry): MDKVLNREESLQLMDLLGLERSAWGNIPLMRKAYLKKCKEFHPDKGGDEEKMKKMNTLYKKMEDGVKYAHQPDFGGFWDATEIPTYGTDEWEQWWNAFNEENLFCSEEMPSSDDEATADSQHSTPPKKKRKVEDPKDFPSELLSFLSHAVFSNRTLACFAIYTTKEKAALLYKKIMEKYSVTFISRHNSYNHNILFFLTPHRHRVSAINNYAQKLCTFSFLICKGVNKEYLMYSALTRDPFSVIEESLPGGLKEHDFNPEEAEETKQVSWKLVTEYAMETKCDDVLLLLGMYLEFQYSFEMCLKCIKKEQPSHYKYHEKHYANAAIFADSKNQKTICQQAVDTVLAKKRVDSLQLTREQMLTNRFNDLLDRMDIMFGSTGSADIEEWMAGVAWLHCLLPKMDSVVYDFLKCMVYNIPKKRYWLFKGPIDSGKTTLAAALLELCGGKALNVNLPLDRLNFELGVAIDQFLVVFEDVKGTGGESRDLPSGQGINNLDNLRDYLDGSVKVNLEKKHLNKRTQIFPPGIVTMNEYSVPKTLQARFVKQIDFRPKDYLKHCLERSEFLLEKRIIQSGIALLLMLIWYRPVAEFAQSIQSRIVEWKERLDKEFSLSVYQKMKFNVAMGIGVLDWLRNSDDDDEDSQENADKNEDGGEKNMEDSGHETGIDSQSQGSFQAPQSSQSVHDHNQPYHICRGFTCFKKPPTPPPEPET
Glyceraldehyde-3-phosphate dehydrogenase, sequence (P04406 whole entry): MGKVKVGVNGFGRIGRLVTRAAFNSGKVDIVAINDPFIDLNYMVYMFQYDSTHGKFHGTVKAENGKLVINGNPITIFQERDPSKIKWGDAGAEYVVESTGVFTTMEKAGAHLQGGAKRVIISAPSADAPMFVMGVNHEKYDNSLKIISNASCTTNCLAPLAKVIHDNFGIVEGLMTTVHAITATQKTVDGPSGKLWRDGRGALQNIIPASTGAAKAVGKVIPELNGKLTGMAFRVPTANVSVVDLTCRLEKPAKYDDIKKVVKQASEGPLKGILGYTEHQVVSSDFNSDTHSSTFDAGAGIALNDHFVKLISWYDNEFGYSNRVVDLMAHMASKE
Induced myeloid leukemia cell differentiation protein Mcl-1, sequence (Q07820 whole entry): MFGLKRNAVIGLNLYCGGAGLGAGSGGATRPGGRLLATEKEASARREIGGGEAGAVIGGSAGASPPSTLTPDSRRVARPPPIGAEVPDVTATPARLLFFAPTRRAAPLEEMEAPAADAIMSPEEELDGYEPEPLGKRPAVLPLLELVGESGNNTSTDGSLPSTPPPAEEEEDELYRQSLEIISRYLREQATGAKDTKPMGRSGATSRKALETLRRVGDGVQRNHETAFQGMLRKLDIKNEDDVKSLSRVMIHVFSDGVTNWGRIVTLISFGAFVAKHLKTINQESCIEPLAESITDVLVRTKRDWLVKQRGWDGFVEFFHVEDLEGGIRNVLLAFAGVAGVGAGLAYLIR
Heat shock cognate 71 kDa protein, sequence (P11142 whole entry): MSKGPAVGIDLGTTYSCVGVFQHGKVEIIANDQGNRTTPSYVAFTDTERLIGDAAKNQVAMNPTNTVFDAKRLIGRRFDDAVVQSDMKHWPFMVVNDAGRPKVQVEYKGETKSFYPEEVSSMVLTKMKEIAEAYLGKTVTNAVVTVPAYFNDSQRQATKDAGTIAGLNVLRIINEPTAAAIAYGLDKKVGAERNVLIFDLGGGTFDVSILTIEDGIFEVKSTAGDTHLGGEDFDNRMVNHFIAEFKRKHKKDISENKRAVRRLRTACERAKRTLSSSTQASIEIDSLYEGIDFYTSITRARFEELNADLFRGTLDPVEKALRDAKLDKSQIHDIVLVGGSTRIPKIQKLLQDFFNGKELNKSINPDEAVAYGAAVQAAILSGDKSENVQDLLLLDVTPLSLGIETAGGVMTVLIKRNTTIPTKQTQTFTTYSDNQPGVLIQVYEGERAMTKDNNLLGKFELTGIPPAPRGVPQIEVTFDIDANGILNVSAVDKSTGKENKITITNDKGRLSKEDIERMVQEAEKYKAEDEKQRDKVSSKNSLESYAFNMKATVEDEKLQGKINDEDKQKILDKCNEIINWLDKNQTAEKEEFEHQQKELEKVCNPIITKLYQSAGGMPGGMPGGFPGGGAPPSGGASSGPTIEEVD
Eukaryotic translation initiation factor 4E, sequence (P63073 whole entry, the tested form may be a part): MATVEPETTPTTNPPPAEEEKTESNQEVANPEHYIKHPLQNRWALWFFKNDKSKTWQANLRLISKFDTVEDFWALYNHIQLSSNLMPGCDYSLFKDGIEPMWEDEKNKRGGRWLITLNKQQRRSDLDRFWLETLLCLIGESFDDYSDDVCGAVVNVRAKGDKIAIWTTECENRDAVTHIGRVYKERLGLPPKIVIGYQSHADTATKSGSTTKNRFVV

SMILES	IC50 [1]	IC50 [2]	IC50 [3]	IC50 [4]	IC50 (Large T antigen)	IC50 (Bcl-2-like protein 10)	IC50 [5]	IC50 [6]	IC50 [7]	EC50 [8]	IC50 [9]	IC50 [10]	IC50 [11]	EC50 [12]	IC50 [13]	IC50 [14]	IC50 [15]	EC50 [16]	EC50 [17]
Cc1ccc2c(c1C)NC(C(=O)O)C1CC=CC21 (centres undefined)	> 10 µM (not active)	3.17 µM (active)	30.3 µM (inactive)	1.7 µM (active)	91.4 µM (active)	1.89 µM (active)	7.18 µM (active)	5.43 µM (active)	0.858 µM (active)	21.7 µM (active)	80.8 µM (active)	6.2 µM (active)	8.68 µM (active)	37.4 µM (active)	6.55 µM (active)	5.96 µM (active)	21.9 µM (active)		
O=C(O)C1CC(c2ccccc2O)=NO1 (centres undefined)																		> 100 µM (inactive)	> 100 µM (inactive)
